Laboratory results published in patent US11932630B2, “Heteroaryl aminopropanol derivatives” (NOVARTIS AG, priority 2021, dated 2024).
Like-named read-outs stand apart in the source and are kept apart here.

Experiments:
[1] = system: LTB4 biosynthesis in human whole blood; assay: Human whole blood assay (hWB), inhibition of LTB4 biosynthesis; format: cell-based; conditions: read-out: hWB IC50
Procedure: b) Human Whole Blood Assay:
Compounds are tested in a human whole blood assay (hWB) to test their ability to inhibit LTB4 biosynthesis in a human cellular system. To this end, fresh blood is collected in heparinized vacutainers by venipuncture from volunteers. Blood is diluted 1:3 with RPM (Roswell Park Memorial Institute) medium and aliquots of 200 μL are transferred to 96-well round bottom cell culture plates. For compound testing, compounds are delivered as 10 mM stock solutions in 90% DMSO in matrix tubes. […] 4 μL of compound dilution or vehicle is added to 200 μL of blood and incubated for 4 hours at 37° C. in a humidified incubator. […] Incubation is terminated by centrifugation at 300 g for 10 min at 22° C. Plasma supernatant is taken and transferred to a 96 well plate for eicosanoid determination by ELISA (Assay designs) according to the manufacturer's protocol after 1:20 dilution in assay buffer. The data is analyzed in GraphPad Prism (GraphPad software Inc.) using non-linear regression to determine IC50 values of LTA4H inhibitors.

[2] = biological target: T1, human LTA4H (Homo sapiens, UniProt P09960); assay: Human LTA4H enzyme assay (Arg-AMC substrate); format: biochemical; conditions: Arg-AMC 600 μM, 9 nM human LTA4H, 15 min pre-incubation; mean values of at least 3 measurements; read-out: ArgAMC IC50
T1 sequence (P09960 1-611): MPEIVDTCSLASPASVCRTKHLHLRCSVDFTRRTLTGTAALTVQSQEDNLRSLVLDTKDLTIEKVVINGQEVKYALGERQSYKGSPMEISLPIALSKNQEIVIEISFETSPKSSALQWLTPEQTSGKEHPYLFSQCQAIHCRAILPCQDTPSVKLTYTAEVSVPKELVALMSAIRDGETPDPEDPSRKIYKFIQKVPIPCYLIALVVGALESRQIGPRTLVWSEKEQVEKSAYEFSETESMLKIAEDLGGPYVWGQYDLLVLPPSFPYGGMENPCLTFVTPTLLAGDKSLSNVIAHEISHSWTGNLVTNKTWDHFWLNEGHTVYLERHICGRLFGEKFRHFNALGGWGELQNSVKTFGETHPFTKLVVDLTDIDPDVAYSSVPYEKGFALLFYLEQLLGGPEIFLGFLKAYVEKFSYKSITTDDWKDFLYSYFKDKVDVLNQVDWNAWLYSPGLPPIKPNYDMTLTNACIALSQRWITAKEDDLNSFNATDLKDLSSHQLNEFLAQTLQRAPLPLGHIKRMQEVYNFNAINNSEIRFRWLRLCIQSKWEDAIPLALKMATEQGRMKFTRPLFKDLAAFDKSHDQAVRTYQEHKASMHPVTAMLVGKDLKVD
Procedure: a) Human LTA4H Enzyme Assay:
[…] (LTA4H) catalyzes the vinylogous hydrolysis of the epoxide, leukotriene A4 (LTA4) into the pro-inflammatory mediator LTB4.
For compound testing, compounds are delivered as 10 mM stock solutions in 90% DMSO (10% water) in matrix tubes. […] A final substrate concentration of 600 μM, which is around the KM value of Arg-AMC, at a final enzyme concentration of 9 nM is chosen. Upon addition of the substrate, the plate is immediately placed in a fluorescence reader and the fluorescence is measured every 10 minutes for 60 minutes using the filter setting λ excitation=380 nm and A emission=460 nm. […] Raw data is converted to rate (moles per minute) using the AMC calibration curve calculated from the AMC standards. The data is analyzed in GraphPad Prism (GraphPad software Inc.) using non-linear regression to determine IC50 values of LTA4H inhibitors.

[3] = human blood diluted 1:3, 4 hours with compound, 10 μg/ml A23187 for 15 min, eicosanoid by ELISA

| IC50 [1, 3] [nM] | IC50 [2] [nM] | SMILES | IC50 ([1]; Homo sapiens) [nM] |
| --- | --- | --- | --- |
| 141 | 6.3 | N[C@H](CO)Cc1nc(-c2cccc(Oc3ccc(C(F)(F)F)cn3)c2)no1 [Example 10, (S)-2-amino-3-(3-(3-((5-(trifluoromethyl)pyridin-2-yl)oxy)phenyl)-1,2,4-oxadiazol-5-yl)propan-1-ol] |  |
| 69 |  | N[C@@H](CO)Cn1nnc(-c2ccc(Oc3ncc(Cl)cc3F)cc2)n1 [Example 30, (R)-2-Amino-3-(5-(4-((5-chloro-3-fluoropyridin-2-yl)oxy)phenyl)-2H-tetrazol-2-yl)propan-1-ol] |  |
| 510 | 9.4 | N[C@H](CO)Cc1noc(-c2ccc(Oc3ccc(Cl)cn3)cc2)n1 [Example 06] |  |
| 72 | 2.1 | N[C@H](CO)Cc1nc(-c2cccc(Oc3ccc(Cl)cn3)c2)no1 [Example 02, (S)-2-amino-3-(3-(3-((5-chloropyridin-2-yl)oxy)phenyl)-1,2,4-oxadiazol-5-yl)propan-1-ol] |  |
|  | 7.4 | N[C@H](CO)Cn1nnc(-c2ccc(Oc3ncc(-c4ncco4)cc3F)cc2)n1 [Example 38, (2S)-2-amino-3-[5-(4-[[3-fluoro-5-(1,3-oxazol-2-yl)pyridin-2-yl]oxy]phenyl)-2H-1,2,3,4-tetrazol-2-yl]propan-1-ol] |  |
| 290 | 2.4 | N[C@H](CO)Cn1nnc(-c2ccc(Oc3ccc(Br)cn3)cc2)n1 [Example 33, (S)-2-Amino-3-(5-(4-((5-bromopyridin-2-yl)oxy)phenyl)-2H-tetrazol-2-yl)propan-1-ol] |  |
| 504 | 6.2 | N[C@H](CO)Cn1nnc(-c2ccc(Oc3ccc(C4CC4)cn3)cc2)n1 [Example 28, (S)-2-Amino-3-(5-(4-((5-cyclopropylpyridin-2-yl)oxy)phenyl)-2H-tetrazol-2-yl)propan-1-ol] |  |
| 62 | 2.6 | N[C@H](CO)Cc1nnn(-c2ccc(Oc3ncc(-c4ccn[nH]4)cc3F)cc2)n1 [Example 40, (S)-2-amino-(2-(4-((3-fluoro-5-(1H-pyrazol-5-yl)pyridin-2-yl)oxy)phenyl)-2H-tetrazol-5-yl)propan-1-ol] |  |
|  | 15.8 | N[C@H](CO)Cn1nnc(-c2ccc(Oc3ccc(Cl)cc3)nc2)n1 [Example 35, (S)-2-Amino-3-(5-(6-(4-chlorophenoxy)pyridin-3-yl)-2H-tetrazol-2-yl)propan-1-01] |  |
| 379 |  | N[C@H](CO)Cn1ccc(-c2cccc(Oc3ncc(Cl)cc3F)c2)n1 [Example 24, (S)-2-amino-3-(3-(3-((5-chloro-3-fluoropyridin-2-yl)oxy)phenyl)-1H-pyrazol-1-yl)propan-1-ol] |  |
| 100 |  | N[C@H](CO)Cc1nc(-c2cccc(Oc3ccc(OC(F)F)cn3)c2)no1 [Example 03, (S)-2-amino-3-(3-(3-((5-(difluoromethoxy)pyridin-2-yl)oxy)phenyl)-1,2,4-oxadiazol-5-yl)propan-1-ol] |  |
| 79 | 2.9 | N[C@H](CO)Cc1nc(-c2cccc([C@@H]3COc4ccccc4O3)c2)no1 [Example 15, (S)-2-amino-3-(3-(3-((R)-2,3-dihydrobenzo[b][1,4]dioxin-2-yl)phenyl)-1,2,4-oxadiazol-5-yl)propan-1-ol] |  |
| 65 | 4.9 | N[C@@H](CO)Cn1nnc(-c2ccc(Oc3ccc(-c4ccn[nH]4)cn3)cc2)n1 [Example 19, (R)-3-(5-(4-((5-(1H-pyrazol-3-yl)pyridin-2-yl)oxy)phenyl)-2H-tetrazol-2-yl)-2-aminopropan-1-ol] |  |
| 753 | 37.6 | N[C@H](CO)Cn1ccc(-c2ccc(Oc3ncc(Cl)cc3F)cn2)n1 [Example 23, (S)-2-amino-3-(3-(5-((5-chloro-3-fluoropyridin-2-yl)oxy)pyridin-2-yl)-1H-pyrazol-1-yl)propan-1-ol] |  |
| 89 | 2.7 | N[C@H](CO)Cn1nnc(-c2ccc(Oc3ncc(-c4ccn[nH]4)cc3F)cn2)n1 [Example 22, (S)-2-amino-3-(5-(5-((3-fluoro-5-(1H-pyrazol-5-yl)pyridin-2-yl)oxy)pyridin-2-yl)-2H-tetrazol-2-yl)propan-1-ol] |  |
| 214 | 3.3 | N[C@H](CO)Cn1nnc(-c2ccc(Oc3ccc(Cl)cc3)cc2)n1 [Example 27, (S)-2-Amino-3-(5-(4-(4-chlorophenoxy)phenyl)-2H-tetrazol-2-yl)propan-1-ol] |  |
| 91 |  | N[C@H](CO)Cc1nc(-c2cccc([C@H]3COc4ccccc4O3)c2)no1 [Example 01, (S)-2-amino-3-(3-(3-((S)-2,3-dihydrobenzo[b][1,4]dioxin-2-yl)phenyl)-1,2,4-oxadiazol-5-yl)propan-1-ol] |  |
| 229 | 2.4 | N[C@H](CO)Cc1nc(-c2ccc(Oc3ccc(Cl)cn3)cc2)no1 [Example 16, (S)-2-amino-3-(3-(4-((5-chloropyridin-2-yl)oxy)phenyl)-1,2,4-oxadiazol-5-yl)propan-1-ol] |  |
|  | 160 | N[C@H](CO)Cn1cc(-c2ccc(Oc3ncc(Cl)cc3F)cc2)cn1 [Example 25, (S)-2-amino-3-(4-(4-((5-chloro-3-fluoropyridin-2-yl)oxy)phenyl)-1H-pyrazol-1-yl)propan-1-ol] |  |
| 39 | 2.3 | N[C@H](CO)Cn1nnc(-c2cccc([C@@H]3COc4cccnc4O3)c2)n1 [Example 14, (S)-2-amino-3-(5-(3-((R)-2,3-dihydro-[1,4]dioxino[2,3-b]pyridin-3-yl)phenyl)-2H-tetrazol-2-yl)propan-1-ol] |  |
| 117 |  | N[C@H](CO)Cc1nc(-c2ccc(Oc3ncc(-c4ccn[nH]4)cc3F)cc2)no1 [Example 07] |  |
| 44 |  | N[C@H](CO)Cc1nc(-c2cccc([C@@H]3COc4cccnc4O3)c2)no1 [Example 11, (S)-2-amino-3-(3-(3-((R)-2,3-dihydro-[1,4]dioxino[2,3-b]pyridin-3-yl)phenyl)-1,2,4-oxadiazol-5-yl)propan-1-ol] |  |
| 51 |  | N[C@H](CO)Cc1nc(-c2ccc(Oc3ccc(-c4ccn[nH]4)cn3)cc2)no1 [Example 13, (S)-3-(3-(4-((5-(1H-Pyrazol-5-yl)pyridin-2-yl)oxy)phenyl)-1,2,4-oxadiazol-5-yl)-2-aminopropan-1-ol] |  |

| SMILES | IC50 [1, 3] [nM] | IC50 [2] [nM] | IC50 ([1]; Homo sapiens) [nM] |
| --- | --- | --- | --- |
| N[C@H](CO)Cn1nnc(-c2ccc(Oc3ccc(Cl)cn3)cc2)n1 [Example 34, (S)-2-Amino-3-(5-(4-((5-chloropyridin-2-yl)oxy)phenyl)-2H-tetrazol-2-yl)propan-1-ol] | 800 | 4 |  |
| N[C@H](CO)Cc1nc(-c2ccc(Oc3ccc(OC(F)F)cn3)cc2)no1 [Example 05, (S)-2-amino-3-(3-(4-((5-(difluoromethoxy)pyridin-2-yl)oxy)phenyl)-1,2,4-oxadiazol-5-yl)propan-1-ol] | 1850 | 28.3 |  |
| C[C@H](Cc1ccccc1)Oc1ccc(-c2noc(C[C@H](N)CO)n2)cc1 [Example 17, (S)-2-amino-3-(3-(4-(((R)-1-phenylpropan-2-yl)oxy)phenyl)-1,2,4-oxadiazol-5-yl)propan-1-ol] | 297 | 16.7 |  |
| N[C@H](CO)Cn1ccc(-c2ccc(Oc3ccc(-c4ccn[nH]4)cn3)cc2)n1 [Example 36] |  | 2.9 | 60 |
| N[C@H](CO)Cn1nnc(-c2ccc(Oc3ncc(Cl)cc3F)cc2)n1 [Example 29, (S)-2-Amino-3-(5-(4-((5-chloro-3-fluoropyridin-2-yl)oxy)phenyl)-2H-tetrazol-2-yl)propan-1-ol] | 162 |  |  |
| N[C@H](CO)Cc1nc(-c2ccc(Oc3ccc(C(F)(F)F)cn3)cc2)no1 [Example 04, (S)-2-amino-3-(3-(4-((5-(trifluoromethyl)pyridin-2-yl)oxy)phenyl)-1,2,4-oxadiazol-5-yl)propan-1-ol] | 327 | 11.8 |  |
